Measurements taken from patent US20250052744A1, “Dyes and Uses Thereof” (The University of Liverpool, priority 2021, published 2025).

Tests used:
Test in all cases: Qualitative dye staining on agarose pads (EVOS M7000)
Type in all cases: cell-based
Parameters in all cases: key to Relative fluorescent intensity: Very high: If the cells looked twice as big in the fluorescent channel, it was marked as having “very high” relative fluorescent intensity; High: if the cells looked bigger in the fluorescent channel, it was marked as having “high” relative fluorescent intensity; Medium: If the cells looked almost the same size in the fluorescent channel and the bright field, it was marked as having “medium” relative fluorescent intensity; Low: If the cells looked smaller in the fluorescent channel as compared to the brightfield but still the whole cell was visible, it was marked as having “low” relative fluorescent intensity; Negligible: If only a few traces of a cell was visible in the fluorescent channel, it was marked as having “negligible” relative fluorescent intensity
Enterococcus spp. = conditions: Table 6 thresholds, Entercoccus, DiSC3(5) 3 μM, SYBR Green I 10×, SYTO 13 3 μM, FM4-64 15 μM
Staphylococcus epidermis = conditions: DiSC3(5) 3 μM, SYBR Green I 10×, SYTO 13 3 μM, FM4-64 15 μM
Cory. Urealyticum = conditions: DiSC3(5) 3 μM, SYBR Green I 10×, SYTO 13 3 μM, FM4-64 15 μM
[1] = Table 6 thresholds, Staphylococcus epidermis
[2] = Table 8 sample Staphylococcus epidermis (044)
[3] = Table 8 sample Staphylococcus epidermis (045)
[4] = Table 8 sample Staphylococcus epidermis (046)
[5] = Table 8 sample Cory. Urealyticum (1001)
[6] = Table 8 sample Cory. Urealyticum (1002)

With `CCCN1C(=CC=CC=Cc2sc3ccccc3[n+]2CCC)Sc2ccccc21.[I-]` [DiSC3(5), 3,3′-Dipropylthiadicarbocyanine Iodide] the “Percentage of cells stained” value (Enterococcus spp.) was “Half”, the Relative fluorescent intensity (Enterococcus spp.) was “low and Low” and the “Percentage of cells stained” value (Staphylococcus epidermis; [1]) was “Almost all”. For the same compound, the Relative fluorescent intensity (Staphylococcus epidermis; [1]) was “Very high”, the “Percentage of cells stained” value (Staphylococcus epidermis; [2]) was “Almost all” and the Relative fluorescent intensity (Staphylococcus epidermis; [2]) was “Very high”. For the same compound, the “Percentage of cells stained” value (Staphylococcus epidermis; [3]) was “Almost all”, the Relative fluorescent intensity (Staphylococcus epidermis; [3]) was “Very high” and the “Percentage of cells stained” value (Staphylococcus epidermis; [4]) was “Almost all”. For the same compound, the Relative fluorescent intensity (Staphylococcus epidermis; [4]) was “Very high”, the “Percentage of cells stained” value (Cory. Urealyticum; [5]) was “Few” and the Relative fluorescent intensity (Cory. Urealyticum; [5]) was “Negligible”. The “Percentage of cells stained” value (Cory. Urealyticum; [6]) was “Few” and the Relative fluorescent intensity (Cory. Urealyticum; [6]) was “Negligible”.
For `CCN(CC)c1ccc(C=CC=CC=Cc2cc[n+](CCC[N+](CC)(CC)CC)cc2)cc1.[Br-].[Br-]` [FM 4-64, N-(3-Triethylammoniumpropyl)-4-(6-(4-(Diethylamino) Phenyl) Hexatrienyl) Pyridinium Dibromide], the “Percentage of cells stained” value (Enterococcus spp.) was “Almost all”, the Relative fluorescent intensity (Enterococcus spp.) was “medium” and the Relative fluorescent intensity (Enterococcus spp.; listed as FM4-64) was “Medium”. For the same compound, the “Percentage of cells stained” value (Staphylococcus epidermis; [1]) was “Almost all”, the Relative fluorescent intensity (Staphylococcus epidermis; [1]) was “Medium” and the “Percentage of cells stained” value (Staphylococcus epidermis; [2]) was “Almost all”. For the same compound, the Relative fluorescent intensity (Staphylococcus epidermis; [2]) was “Medium”, the “Percentage of cells stained” value (Staphylococcus epidermis; [3]) was “Almost all” and the Relative fluorescent intensity (Staphylococcus epidermis; [3]) was “Medium”. For the same compound, the “Percentage of cells stained” value (Staphylococcus epidermis; [4]) was “Almost all”, the Relative fluorescent intensity (Staphylococcus epidermis; [4]) was “Medium” and the “Percentage of cells stained” value (Cory. Urealyticum; [5]) was “Few”. For the same compound, the Relative fluorescent intensity (Cory. Urealyticum; [5]) was “Negligible”, the “Percentage of cells stained” value (Cory. Urealyticum; [6]) was “Few” and the Relative fluorescent intensity (Cory. Urealyticum; [6]) was “Negligible”.
With `CCCN(CCCN(C)C)c1cc(/C=C2/Sc3ccccc3N2C)c2ccccc2[n+]1-c1ccccc1` [SYBR Green I, N′,N′-dimethyl-N-[4-[(E)-(3-methyl-1,3-benzothiazol-2-ylidene)methyl]-1-phenylquinolin-1-ium-2-yl]-N-propylpropane-1,3-diamine] the “Percentage of cells stained” value (Enterococcus spp.) was “Almost all”, the Relative fluorescent intensity (Enterococcus spp.) was “medium to high” and the Relative fluorescent intensity (Enterococcus spp.; listed as SYBR Green) was “Medium-High”. For the same compound, the “Percentage of cells stained” value (Staphylococcus epidermis; [1]) was “Almost all”, the Relative fluorescent intensity (Staphylococcus epidermis; [1]) was “High” and the “Percentage of cells stained” value (Staphylococcus epidermis; [2]) was “Almost all”. For the same compound, the Relative fluorescent intensity (Staphylococcus epidermis; [2]) was “High”, the “Percentage of cells stained” value (Staphylococcus epidermis; [3]) was “Almost all” and the Relative fluorescent intensity (Staphylococcus epidermis; [3]) was “High”. For the same compound, the “Percentage of cells stained” value (Staphylococcus epidermis; [4]) was “Almost all”, the Relative fluorescent intensity (Staphylococcus epidermis; [4]) was “High” and the “Percentage of cells stained” value (Cory. Urealyticum; [5]) was “Few”. The Relative fluorescent intensity (Cory. Urealyticum; [5]) was “Negligible”, the “Percentage of cells stained” value (Cory. Urealyticum; [6]) was “Few” and the Relative fluorescent intensity (Cory. Urealyticum; [6]) was “Negligible”.
